Assay results as given in patent US6153592A, “Enhancing the bioavailability of proteolytically labile therapeutic agents” (Port Systems, LLC, priority 1994, dated 2000).

Assays:
[1] = system: intestinal aminopeptidases; assay: Protection against degradation by aminopeptidase in vivo: YdAGFdL bioavailability after ileal dosing; set-up: species or system rats
Description: The pentapeptide enkephalin analogue D-AJa-D-Leu-enkephalin (YdAGFdL) (1.0 mg) was directly ileally dosed to chronically ileally fistulated rats. Radiolabeled YdAGFdL (1.12 microgram) was dosed with each of four protecting agents: (1) decanted soy flour, <1K MW; (2) decanted and ultrafitered soy flour, 1K-30K MW; (3) pepsin-treated (FMC ACTI-MOD) soy flour, <30K MW; (4) the potent aminopeptidase inhibitor amastatin (positive control). Blood was collected from a jugular vein cannula at various times post-dosing, and intact YdAGFdL was quantified by a radiometric thin layer chromatography (TLC) method utilizing reverse phase KC-18 TLC plates (Whatman Co.). The TLC plates were developed with 30:701 -propanol/0.1 M phosphate buffer (pH 4.1).

[2] = in vivo, cited from earlier work

% YdAGFdL Bioavailability ([1]; protecting agent 1 mg, ileally fistulated rats) [%]	protection against degradation of YdAGFdL by intestinal aminopeptidases (in words) ([1]; rats)	Structure (SMILES)	bioavailability following oral administration ([2]; po) [%]	bioavailability following vaginal administration [2] [%]
8.76 ± 4.47	effective	CC(C)C[C@@H](N)[C@H](O)C(=O)N[C@H](C(=O)N[C@H](C(=O)N[C@@H](CC(=O)O)C(=O)O)C(C)C)C(C)C [Amastatin]		
		CCNC(=O)[C@@H]1CCCN1C(=O)[C@H](CCCNC(=N)N)NC(=O)[C@H](CC(C)C)NC(=O)[C@@H](CC(C)C)NC(=O)[C@H](Cc1ccc(O)cc1)NC(=O)[C@H](CO)NC(=O)[C@H](Cc1c[nH]c2ccccc12)NC(=O)[C@H](Cc1c[nH]cn1)NC(=O)[C@@H]1CCC(=O)N1 [leuprolide]	0.05	38
